The values that follow come from PMC3857843, “Multiple Transport-Active Binding Sites Are Available for a Single Substrate on Human P-Glycoprotein (ABCB1)” (PLoS ONE, 2013).

Series [1] has as its target T1, Y307C/Q725C/V982C mutant Pgp (Homo sapiens, UniProt P08183, C1074A/C1125A/C1227A/C137A/C431A/C717A/C956A/Q725C/V982C/Y307C). Description: in vitro. As for the experimental part: (§1) Then, samples were photocrosslinked with IAAP at 4°C as described in the Materials and Methods section. Mean values from at least three independent experiments are plotted and error bars depict SD.
(§2) High-Five insect cells (Invitrogen, Carlsbad, CA) were infected with recombinant baculovirus carrying the human MDR1 cDNA cysless WT and various mutant Pgps, with a His6-tag at the C-terminus as described previously. Crude membranes were prepared as described previously
(§3) The crude membranes of High-Five insect cells containing 60-80 µg protein per 100 µL in 50 mM MES-Tris buffer (pH 6.8), were incubated for 10 minutes at 37°C in the absence (control) and presence of compound(s) at indicated concentration.

The target of series [2] is T2, cysless WT Pgp (Homo sapiens, UniProt P08183, C1074A/C1125A/C1227A/C137A/C431A/C717A/C956A). Kind of series: in vitro. Here is the method:
as §1, §2, §3

The subject of another series is all mutant Pgps. Kind of series: Vanadate-sensitive ATP hydrolysis of Pgp in crude membranes. The class given is biochemical, human. As for the experimental part: Crude membranes were prepared as described previously
The target in series [3] is T3, F343C mutant Pgp (Homo sapiens, UniProt P08183, C1074A/C1125A/C1227A/C137A/C431A/C717A/C956A/F343C). Description: Transport of fluorescent substrates in BacMam-transduced HeLa cells (flow cytometry). The settings on record: compared to cysless WT Pgp (taken as 100%), calcein-AM 0.5 µM 10 min, Rh123 […], other substrates 0.5 µM 45 min. Here is the method: (§4) The BacMam-Pgp virus (encoding cysless WT and the mutant Pgps) was added to 2.5 million HeLa cells at a titer of 50-60 viral particles per cell in 3 ml of DMEM and incubated at 37°C [30]. After 1 hr DMEM was added to make a total of 20 ml in the flask and these infected cells were further incubated for 3-4 hrs. 10 mM butyric acid was then added and the cells continued to incubate at 37°C. After 24 hrs, the cells were trypsinized, washed, counted and analyzed by flow cytometry for cell surface expression and the function of the wildtype and mutant Pgps.
(§5) The transport function of cysless WT and mutant Pgps was determined using fluorescent compounds with flow cytometry as previously described. […] Cells were washed with cold PBS and resuspended in PBS containing 0.1% BSA before analysis.

The target of series [4] is T4, F343C/V982C mutant Pgp (Homo sapiens, UniProt P08183, C1074A/C1125A/C1227A/C137A/C431A/C717A/C956A/F343C/V982C). The series is described as above. The conditions noted are these: compared to cysless WT Pgp (taken as 100%), calcein-AM 0.5 µM 10 min, Rh123 […], other substrates 0.5 µM 45 min. Here is the method:
as §4, §5

The target of series [5] is T5, F728C mutant Pgp (Homo sapiens, UniProt P08183, C1074A/C1125A/C1227A/C137A/C431A/C717A/C956A/F728C). The series is described as above. The settings on record: compared to cysless WT Pgp (taken as 100%), calcein-AM 0.5 µM 10 min, Rh123 […], other substrates 0.5 µM 45 min. As for the experimental part: as §4, §5
The next series deals with F978C mutant Pgp (Homo sapiens, UniProt P08183, C1074A/C1125A/C1227A/C137A/C431A/C717A/C956A/F978C). Described as above. The conditions noted are these: compared to cysless WT Pgp (taken as 100%), calcein-AM 0.5 µM 10 min, Rh123 […], other substrates 0.5 µM 45 min. As for the experimental part:
as §4, §5

For series [6], the target named is T6, Q725C mutant Pgp (Homo sapiens, UniProt P08183, C1074A/C1125A/C1227A/C137A/C431A/C717A/C956A/Q725C). The description is as above. The settings on record: compared to cysless WT Pgp (taken as 100%), calcein-AM 0.5 µM 10 min, Rh123 […], other substrates 0.5 µM 45 min. As for the experimental part:
as §4, §5

For series [7], the target named is T7, Q725C/V982C mutant Pgp (Homo sapiens, UniProt P08183, C1074A/C1125A/C1227A/C137A/C431A/C717A/C956A/Q725C/V982C). The description is as above. The conditions noted are these: compared to cysless WT Pgp (taken as 100%), calcein-AM 0.5 µM 10 min, Rh123 […], other substrates 0.5 µM 45 min. As for the experimental part:
as §4, §5

For series [8], the target named is T8, V982C mutant Pgp (Homo sapiens, UniProt P08183, C1074A/C1125A/C1227A/C137A/C431A/C717A/C956A/V982C). The description is as above. The conditions noted are these: compared to cysless WT Pgp (taken as 100%), calcein-AM 0.5 µM 10 min, Rh123 […], other substrates 0.5 µM 45 min. Here is the method: as §4, §5
Series [9] has as its target T9, Y307C mutant Pgp (Homo sapiens, UniProt P08183, C1074A/C1125A/C1227A/C137A/C431A/C717A/C956A/Y307C). The description is as above. The settings on record: compared to cysless WT Pgp (taken as 100%), calcein-AM 0.5 µM 10 min, Rh123 […], other substrates 0.5 µM 45 min. Here is the method:
as §4, §5

The target of series [10] is T3, F343C mutant Pgp. Kind of series: Vanadate-sensitive ATP hydrolysis of Pgp in crude membranes. The conditions noted are these: Verapamil 50 µM, QZ59-SSS 1 µM, FSBA 1 mM. Here is the method:
(§6) Vanadate-sensitive Pgp-mediated ATP hydrolysis was measured as described in Materials and Methods. […] At least two independent experiments were carried out for each mutant with indicated compounds. Additional information including standard deviations, fold-stimulation or % inhibition, and number of experiments is given in the section (Tables S2 and S3).
as §2
(§7) Crude membranes (10-25 µg protein/100 µ L) from High Five insect cells expressing cysless WT or mutant Pgp were incubated in the presence and absence of sodium orthovanadate (0.3 mM), in a buffer containing 50 mM MES-Tris pH 6.8, 50 mM KCl, 5 mM NaN3, 1 mM EGTA, 1 mM ouabain, 2 mM DTT, and 10 mM MgCl2. […] The reaction was initiated by addition of 5 mM ATP and continued for 20 min at 37°C. […] The reaction was stopped by addition of 100 µ L of 5% SDS and the amount of inorganic phosphate generated was quantified with a colorimetric reaction, as previously described.

Series [11] deals with T4, F343C/V982C mutant Pgp. The series is described as above. The conditions noted are these: Verapamil 50 µM, QZ59-SSS 1 µM, Valinomycin 10 µM, FSBA 1 mM. Here is the method: as §6, §2, §7
The target of series [12] is T5, F728C mutant Pgp. Described as above. The conditions noted are these: Verapamil 50 µM, QZ59-SSS 1 µM, Valinomycin 10 µM, FSBA 1 mM. As for the experimental part:
as §6, §2, §7

A further series deals with F728C/V982C mutant Pgp (Homo sapiens, UniProt P08183, C1074A/C1125A/C1227A/C137A/C431A/C717A/C956A/F728C/V982C). Described as above. The conditions noted are these: Verapamil 50 µM, QZ59-SSS 1 µM, Valinomycin 10 µM, FSBA 1 mM. Here is the method:
as §6, §2, §7

Series [13] concerns the target T6, Q725C mutant Pgp. Described as above. The settings on record: Verapamil 50 µM, QZ59-SSS 1 µM, Valinomycin 10 µM, FSBA 1 mM. Here is the method:
as §6, §2, §7

Series [14] has as its target T7, Q725C/V982C mutant Pgp. The description is as above. The conditions noted are these: Verapamil 50 µM, QZ59-SSS 1 µM, Valinomycin 10 µM, FSBA 1 mM. As for the experimental part: as §6, §2, §7
Series [15] concerns the target T8, V982C mutant Pgp. Described as above. The settings on record: Verapamil 50 µM, QZ59-SSS 1 µM, Valinomycin 10 µM, FSBA 1 mM. Here is the method:
as §6, §2, §7

The target of series [16] is T9, Y307C mutant Pgp. The description is as above. The settings on record: Verapamil 50 µM, QZ59-SSS 1 µM, Valinomycin 10 µM, FSBA 1 mM. Here is the method: as §6, §2, §7
In series [17] the target is T1, Y307C/Q725C/V982C mutant Pgp. The description is as above. The conditions noted are these: Verapamil 50 µM, QZ59-SSS 1 µM, Valinomycin 10 µM, FSBA 1 mM. As for the experimental part: as §6, §2, §7
The next series has as its target Y307C/V982C mutant Pgp (Homo sapiens, UniProt P08183, C1074A/C1125A/C1227A/C137A/C431A/C717A/C956A/V982C/Y307C). The description is as above. The conditions noted are these: Verapamil 50 µM, QZ59-SSS 1 µM, Valinomycin 10 µM, FSBA 1 mM. Here is the method:
as §6, §2, §7

Series [18] has as its target T2, cysless WT Pgp. Described as above. The conditions noted are these: Verapamil 50 µM, QZ59-SSS 1 µM, Valinomycin 10 µM, FSBA 1 mM. As for the experimental part:
as §6, §2, §7

pIC50: −log10 of the molar value. Bounds are passed on as bounds.

T1 sequence (P08183 whole entry C137A/Y307C/C431A/C717A/Q725C/C956A/V982C/C1074A/C1125A/C1227A): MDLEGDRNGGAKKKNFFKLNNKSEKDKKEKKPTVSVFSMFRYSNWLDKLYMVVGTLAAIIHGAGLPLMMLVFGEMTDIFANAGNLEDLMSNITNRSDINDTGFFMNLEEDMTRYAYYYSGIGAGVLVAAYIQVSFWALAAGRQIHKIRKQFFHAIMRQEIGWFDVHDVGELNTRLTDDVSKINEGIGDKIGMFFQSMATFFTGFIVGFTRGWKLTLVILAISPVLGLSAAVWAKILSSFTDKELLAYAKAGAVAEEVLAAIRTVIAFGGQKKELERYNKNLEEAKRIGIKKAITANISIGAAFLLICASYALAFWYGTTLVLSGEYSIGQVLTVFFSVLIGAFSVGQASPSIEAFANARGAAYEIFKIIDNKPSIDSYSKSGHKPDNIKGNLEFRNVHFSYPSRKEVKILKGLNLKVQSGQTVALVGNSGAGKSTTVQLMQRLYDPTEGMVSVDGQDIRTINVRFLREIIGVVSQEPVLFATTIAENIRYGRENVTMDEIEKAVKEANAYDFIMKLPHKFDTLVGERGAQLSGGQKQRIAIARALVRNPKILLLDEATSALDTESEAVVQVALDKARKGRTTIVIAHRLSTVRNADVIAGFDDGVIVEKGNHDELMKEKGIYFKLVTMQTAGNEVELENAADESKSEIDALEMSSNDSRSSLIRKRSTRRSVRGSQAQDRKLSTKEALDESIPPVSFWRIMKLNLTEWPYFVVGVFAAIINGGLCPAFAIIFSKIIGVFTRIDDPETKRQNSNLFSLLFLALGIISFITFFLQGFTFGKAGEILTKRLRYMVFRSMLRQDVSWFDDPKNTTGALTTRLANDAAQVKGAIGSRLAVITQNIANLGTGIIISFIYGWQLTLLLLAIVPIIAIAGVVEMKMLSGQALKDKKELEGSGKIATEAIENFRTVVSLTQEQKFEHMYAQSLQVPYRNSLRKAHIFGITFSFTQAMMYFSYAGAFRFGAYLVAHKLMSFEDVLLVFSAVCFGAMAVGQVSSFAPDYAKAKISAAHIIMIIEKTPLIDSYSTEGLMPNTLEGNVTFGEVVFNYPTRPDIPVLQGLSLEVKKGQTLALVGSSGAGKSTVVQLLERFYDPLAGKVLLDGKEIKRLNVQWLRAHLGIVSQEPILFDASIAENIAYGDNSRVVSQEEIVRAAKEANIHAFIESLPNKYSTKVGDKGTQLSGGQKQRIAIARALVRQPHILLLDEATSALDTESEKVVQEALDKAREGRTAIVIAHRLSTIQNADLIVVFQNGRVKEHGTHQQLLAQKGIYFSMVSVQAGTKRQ
T2 sequence (P08183 whole entry C137A/C431A/C717A/C956A/C1074A/C1125A/C1227A): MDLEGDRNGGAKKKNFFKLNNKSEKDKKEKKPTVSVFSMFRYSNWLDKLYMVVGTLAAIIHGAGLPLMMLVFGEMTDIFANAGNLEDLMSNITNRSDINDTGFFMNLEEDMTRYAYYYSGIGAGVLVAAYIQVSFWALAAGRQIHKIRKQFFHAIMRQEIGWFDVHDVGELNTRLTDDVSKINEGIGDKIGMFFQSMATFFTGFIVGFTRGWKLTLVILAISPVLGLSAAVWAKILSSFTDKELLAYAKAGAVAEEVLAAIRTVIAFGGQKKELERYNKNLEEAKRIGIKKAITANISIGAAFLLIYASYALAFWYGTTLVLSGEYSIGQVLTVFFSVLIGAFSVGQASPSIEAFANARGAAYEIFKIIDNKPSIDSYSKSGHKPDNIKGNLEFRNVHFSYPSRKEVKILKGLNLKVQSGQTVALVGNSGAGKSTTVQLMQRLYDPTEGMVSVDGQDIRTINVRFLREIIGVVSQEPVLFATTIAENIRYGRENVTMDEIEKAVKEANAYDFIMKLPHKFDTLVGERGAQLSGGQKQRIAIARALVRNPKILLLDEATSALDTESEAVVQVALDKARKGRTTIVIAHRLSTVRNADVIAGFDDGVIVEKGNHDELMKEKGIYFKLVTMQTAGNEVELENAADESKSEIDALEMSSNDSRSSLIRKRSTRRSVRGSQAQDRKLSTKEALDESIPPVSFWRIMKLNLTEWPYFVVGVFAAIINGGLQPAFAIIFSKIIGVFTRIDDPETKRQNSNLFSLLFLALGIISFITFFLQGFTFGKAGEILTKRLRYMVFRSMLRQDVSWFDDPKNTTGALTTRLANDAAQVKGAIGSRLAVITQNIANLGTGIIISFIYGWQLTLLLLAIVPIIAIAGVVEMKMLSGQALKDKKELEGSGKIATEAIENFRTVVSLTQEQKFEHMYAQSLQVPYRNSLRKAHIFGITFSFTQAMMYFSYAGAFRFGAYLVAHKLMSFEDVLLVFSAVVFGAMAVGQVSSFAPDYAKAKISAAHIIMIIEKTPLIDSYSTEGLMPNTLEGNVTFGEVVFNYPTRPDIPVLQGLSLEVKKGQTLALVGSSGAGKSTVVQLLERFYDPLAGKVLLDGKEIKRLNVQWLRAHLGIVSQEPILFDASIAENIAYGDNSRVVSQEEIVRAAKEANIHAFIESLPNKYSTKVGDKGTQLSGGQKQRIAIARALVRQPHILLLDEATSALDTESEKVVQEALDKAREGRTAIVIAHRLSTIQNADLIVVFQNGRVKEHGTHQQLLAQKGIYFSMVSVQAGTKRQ
T8 sequence (P08183 whole entry C137A/C431A/C717A/C956A/V982C/C1074A/C1125A/C1227A): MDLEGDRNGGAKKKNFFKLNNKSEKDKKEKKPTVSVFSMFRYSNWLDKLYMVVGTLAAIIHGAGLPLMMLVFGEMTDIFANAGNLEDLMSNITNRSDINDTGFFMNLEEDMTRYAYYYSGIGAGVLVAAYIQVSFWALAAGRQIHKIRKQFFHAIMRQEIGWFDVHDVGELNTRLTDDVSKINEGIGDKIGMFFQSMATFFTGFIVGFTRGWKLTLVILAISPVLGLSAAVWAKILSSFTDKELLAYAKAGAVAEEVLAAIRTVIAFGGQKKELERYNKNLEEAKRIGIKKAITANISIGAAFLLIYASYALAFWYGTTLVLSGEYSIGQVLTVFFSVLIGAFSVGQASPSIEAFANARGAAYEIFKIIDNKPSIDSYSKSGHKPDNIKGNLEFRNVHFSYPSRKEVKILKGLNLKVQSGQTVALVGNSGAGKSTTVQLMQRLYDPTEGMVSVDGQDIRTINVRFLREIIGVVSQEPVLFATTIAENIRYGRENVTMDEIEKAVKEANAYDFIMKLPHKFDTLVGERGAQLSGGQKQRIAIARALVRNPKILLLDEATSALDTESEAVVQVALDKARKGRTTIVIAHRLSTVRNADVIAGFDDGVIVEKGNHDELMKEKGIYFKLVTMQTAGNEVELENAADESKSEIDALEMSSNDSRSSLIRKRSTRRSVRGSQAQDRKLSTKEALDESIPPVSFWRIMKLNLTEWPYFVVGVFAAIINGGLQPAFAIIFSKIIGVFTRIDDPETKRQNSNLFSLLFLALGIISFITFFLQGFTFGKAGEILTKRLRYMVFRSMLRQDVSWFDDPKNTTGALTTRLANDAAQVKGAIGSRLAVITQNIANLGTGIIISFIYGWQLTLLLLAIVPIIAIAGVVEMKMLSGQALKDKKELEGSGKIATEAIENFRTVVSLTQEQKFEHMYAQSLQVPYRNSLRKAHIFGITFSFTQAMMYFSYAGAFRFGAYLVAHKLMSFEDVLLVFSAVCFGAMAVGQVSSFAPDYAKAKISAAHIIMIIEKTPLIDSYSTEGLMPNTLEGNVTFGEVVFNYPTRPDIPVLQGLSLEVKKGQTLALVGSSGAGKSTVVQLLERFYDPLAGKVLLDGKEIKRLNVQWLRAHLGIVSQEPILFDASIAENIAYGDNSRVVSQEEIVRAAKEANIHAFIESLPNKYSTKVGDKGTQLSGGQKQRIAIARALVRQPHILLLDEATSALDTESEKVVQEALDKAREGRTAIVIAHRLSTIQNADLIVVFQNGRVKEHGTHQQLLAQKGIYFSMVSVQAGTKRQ
T3 sequence (P08183 whole entry C137A/F343C/C431A/C717A/C956A/C1074A/C1125A/C1227A): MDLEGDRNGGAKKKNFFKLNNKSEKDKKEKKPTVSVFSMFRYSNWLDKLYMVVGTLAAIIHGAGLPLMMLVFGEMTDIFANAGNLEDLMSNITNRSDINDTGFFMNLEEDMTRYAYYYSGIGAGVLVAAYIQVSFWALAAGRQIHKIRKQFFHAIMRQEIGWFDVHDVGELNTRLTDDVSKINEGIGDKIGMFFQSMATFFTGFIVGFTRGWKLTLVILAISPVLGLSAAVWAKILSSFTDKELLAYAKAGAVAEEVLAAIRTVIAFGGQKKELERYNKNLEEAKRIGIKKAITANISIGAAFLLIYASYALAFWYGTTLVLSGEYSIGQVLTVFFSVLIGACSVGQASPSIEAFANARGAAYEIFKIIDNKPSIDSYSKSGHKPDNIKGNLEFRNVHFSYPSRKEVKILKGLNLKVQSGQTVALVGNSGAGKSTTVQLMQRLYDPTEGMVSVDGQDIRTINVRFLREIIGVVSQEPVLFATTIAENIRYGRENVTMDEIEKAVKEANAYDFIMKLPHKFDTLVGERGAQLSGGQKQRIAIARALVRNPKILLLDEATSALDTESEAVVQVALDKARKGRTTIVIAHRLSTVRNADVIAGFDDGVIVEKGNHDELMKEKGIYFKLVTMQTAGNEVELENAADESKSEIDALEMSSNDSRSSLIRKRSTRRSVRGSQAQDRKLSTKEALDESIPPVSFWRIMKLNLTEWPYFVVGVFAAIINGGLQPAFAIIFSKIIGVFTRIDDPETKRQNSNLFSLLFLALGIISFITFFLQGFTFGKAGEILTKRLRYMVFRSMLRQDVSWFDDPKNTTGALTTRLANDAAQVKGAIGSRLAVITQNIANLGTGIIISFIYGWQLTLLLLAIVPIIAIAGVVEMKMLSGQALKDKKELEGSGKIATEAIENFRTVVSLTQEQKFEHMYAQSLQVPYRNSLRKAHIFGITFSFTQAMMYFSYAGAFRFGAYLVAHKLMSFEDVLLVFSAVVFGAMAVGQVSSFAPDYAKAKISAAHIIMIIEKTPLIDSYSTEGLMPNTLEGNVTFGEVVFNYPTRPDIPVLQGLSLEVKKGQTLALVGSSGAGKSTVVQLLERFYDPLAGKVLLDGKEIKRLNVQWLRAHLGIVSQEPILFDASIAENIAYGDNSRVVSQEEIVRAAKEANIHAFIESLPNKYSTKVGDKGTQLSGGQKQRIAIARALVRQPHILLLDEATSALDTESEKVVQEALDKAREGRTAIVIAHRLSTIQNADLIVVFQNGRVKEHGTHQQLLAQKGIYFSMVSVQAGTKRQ

On to `CC(C)[C@@H]1NC(=O)c2csc(n2)[C@H](C(C)C)NC(=O)c2csc(n2)[C@H](C(C)C)NC(=O)c2csc1n2` [QZ59-SSS], for which, in [1], the “Inhibition of IAAP photo-labeling” value is given as below 30%. At cysless WT Pgp [2], the pIC50 was 5.22 and the “Max Inhibition (%) of IAAP-labeling” value came to 72%. For the same molecule, the “Modulation of ATP hydrolysis” value with all mutant Pgps (all mutant Pgps, inhibition measured in presence of verapamil 5 µM) is recorded as “stimulates ATP hydrolysis of the mutant Pgps with no exceptions”.
Regarding `COc1cccc2c1C(=O)c1c(O)c3c(c(O)c1C2=O)C[C@@](O)(C(C)=O)C[C@@H]3O[C@H]1C[C@H](N)[C@H](O)[C@H](C)O1` [Dauno, daunorubicin], the Transport function on F343C mutant Pgp [3], at F343C/V982C mutant Pgp [4], at F728C mutant Pgp [5], at F978C mutant Pgp, on Q725C mutant Pgp [6] and at Q725C/V982C mutant Pgp [7] was 90-100% throughout. The Transport function at V982C mutant Pgp [8] and on Y307C mutant Pgp [9] was 90-100% throughout.
As for `COc1ccc(CCN(C)CCCC(C#N)(c2ccc(OC)c(OC)c2)C(C)C)cc1OC` (stereo not drawn) [Verapamil, verapamil], in the series with all mutant Pgps (all the mutants, Verapamil 50 µM), the “Stimulation of ATP hydrolysis” value is listed as 2-4 fold.
For `COC(=O)c1ccccc1-c1c2ccc(=N)cc-2oc2cc(N)ccc12` [Rh123, rhodamine123], the Transport function at F343C mutant Pgp [3], on F343C/V982C mutant Pgp [4], at F728C mutant Pgp [5], on F978C mutant Pgp, on Q725C mutant Pgp [6] and on Q725C/V982C mutant Pgp [7] was 90-100% each time. Besides, the Transport function on V982C mutant Pgp [8] and on Y307C mutant Pgp [9] was 90-100% in each case.
On to `Nc1ncnc2c1ncn2[C@@H]1O[C@H](COC(=O)c2ccc(S(=O)(=O)F)cc2)[C@@H](O)[C@H]1O` [FSBA, 5′-fluorosulfonylbenzoyl 5′-adenosine], for which, in [1] (Y307C/Q725C/V982C, at higher concentrations), the “Inhibition of IAAP photo-labeling” value is below 30%. Besides, the “Max Inhibition (%) of IAAP-labeling” value at cysless WT Pgp [2] (Cysless WT, High-Five crude membranes) is given as 85%. The half-inhibitory concentration (IC50) on cysless WT Pgp [2] (read-out: IC50 (µM), inhibition of IAAP-labeling, Cysless WT, High-Five crude membranes) was 390 µM. Besides, the “ATP hydrolysis, Average” value on F343C mutant Pgp [10] came to 39 nmoles Pi/min/mg protein; on F343C/V982C mutant Pgp [11], 50 nmoles Pi/min/mg protein; on F728C mutant Pgp [12], 11 nmoles Pi/min/mg protein; on F728C/V982C mutant Pgp it was 5 nmoles Pi/min/mg protein; at Q725C mutant Pgp [13] it was 10 nmoles Pi/min/mg protein; at Q725C/V982C mutant Pgp [14], 12 nmoles Pi/min/mg protein. Moreover, the “ATP hydrolysis, Average” value at V982C mutant Pgp [15] is 28 nmoles Pi/min/mg protein; on Y307C mutant Pgp [16], 14 nmoles Pi/min/mg protein; in series [17] it was 6 nmoles Pi/min/mg protein; on Y307C/V982C mutant Pgp it was 20 nmoles Pi/min/mg protein; on cysless WT Pgp [18], 52 nmoles Pi/min/mg protein. Besides, the “ATP hydrolysis, Fold-stimulation” value at F343C mutant Pgp [10] (relative to basal) worked out at 2.1; on F343C/V982C mutant Pgp [11] (relative to basal), 2.7; at F728C mutant Pgp [12] (relative to basal) it was 1.8; at F728C/V982C mutant Pgp (relative to basal), 1.1; on Q725C mutant Pgp [13] (relative to basal), 2.0; at Q725C/V982C mutant Pgp [14] (relative to basal) it was 2.3. Further, the “ATP hydrolysis, Fold-stimulation” value on V982C mutant Pgp [15] (relative to basal) stood at 2.4; at Y307C mutant Pgp [16] (relative to basal) it was 1.9; at Y307C/V982C mutant Pgp (relative to basal), 2.1; on cysless WT Pgp [18] (relative to basal), 2.4.
